# Patent publication US9480755B2, “Pharmaceutical composition comprising dapagliflozin and cyclodextrin” (ratiopharm GmbH, priority 2011, dated 2016)
# Read-outs that look alike come from different tables or passages of the source.
# How the values were obtained:
# [1] = Protocol: Literatural examples indicate that the effectiveness of complex formation may be increased upon the addition of hydroxycarboxylic acids, especially citric acid in case the complex forming cyclodextrin or its complex is subject to aggregation. Often this is the case when parent cyclodextrins are applied. […] As a proof of concept, representative isotherm data were determined in the presence of citric acid (added in equimolar ratio with the pharmacon) and compared to the original dissolved concentrations (Table 2).
# [2] = deionised water; for Dissolved Dapagliflozin: 25 ± 2° C.
# Protocol: The effect of cyclodextrins on the aqueous solubility of dapagliflozin was studied in deionised water at 25±2° C. The solubilizing effect was studied by preparing samples having a cyclodextrin concentration in the range of 1 to 15 wt. %.
# The following cyclodextrins were used: • b-cyclodextrin (BCD): CYL-2518/2 (Wacker Chemie GmbH) • (2-hydroxy)propyl-b-cyclodextrin (HPBCD): E0062 (Roquette Frères) • sulfobutylether-b-cyclodextrin (SBEBCD): 47K040508 (CycloLab)
structure (smiles),measurement,setting,value
"CCOc1ccc(Cc2cc([C@@H]3O[C@H](CO)[C@@H](O)[C@H](O)[C@H]3O)ccc2Cl)cc1 [dapagliflozin, (2S,3R,4R,5S,6R)-2-[4-chloro-3-(4-ethoxybenzyl)phenyl]-6-(hydroxymethyl)-tetrahydro-2H-pyran-3,4,5-triol]",Dissolved Dapagliflozin,[1]; HPBCD 1.0% + 28 mg citric acid (equimolar with the drug),4.1 mg/mL
same,Dissolved Dapagliflozin,[1]; HPBCD 2.5% + 28 mg citric acid (equimolar with the drug),8.1 mg/mL
same,Dissolved Dapagliflozin,[1]; HPBCD 5.0% + 28 mg citric acid (equimolar with the drug),14.3 mg/mL
same,Dissolved Dapagliflozin,[2]; BCD 0.5 wt. %,3.3 mg/mL
same,Dissolved Dapagliflozin,[2]; BCD 1.0 wt. %,4.7 mg/mL
same,Dissolved Dapagliflozin,[2]; BCD 1.5 wt. %,6.3 mg/mL
same,Dissolved Dapagliflozin,[2]; BCD 2.0 wt. %,7.7 mg/mL
same,Dissolved Dapagliflozin,[2]; HPBCD 1.0 wt. %,4.4 mg/mL
same,Dissolved Dapagliflozin,[2]; HPBCD 2.0 wt. %,7.2 mg/mL
same,Dissolved Dapagliflozin,[2]; HPBCD 2.5 wt. %,8.6 mg/mL
same,Dissolved Dapagliflozin,[2]; HPBCD 3.0 wt. %,9.7 mg/mL
same,Dissolved Dapagliflozin,[2]; HPBCD 4.0 wt. %,12.5 mg/mL
same,Dissolved Dapagliflozin,[2]; HPBCD 5.0 wt. %,14.4 mg/mL
same,Dissolved Dapagliflozin,[2]; HPBCD 10.0 wt. %,14.1 mg/mL
same,Dissolved Dapagliflozin,[2]; HPBCD 15.0 wt. %,14.0 mg/mL
same,Dissolved Dapagliflozin,[2]; HPGCD 1.0 wt. %,4.2 mg/mL
same,Dissolved Dapagliflozin,[2]; HPGCD 5.0 wt. %,11.3 mg/mL
same,Dissolved Dapagliflozin,[2]; HPGCD 10.0 wt. %,14.9 mg/mL
same,Dissolved Dapagliflozin,[2]; HPGCD 15.0 wt. %,14.4 mg/mL
same,Dissolved Dapagliflozin,[2]; SBEBCD 1.0 wt. %,3.8 mg/mL
same,Dissolved Dapagliflozin,[2]; SBEBCD 5.0 wt. %,10.7 mg/mL
same,Dissolved Dapagliflozin,[2]; SBEBCD 10.0 wt. %,13.1 mg/mL
same,Dissolved Dapagliflozin,[2]; SBEBCD 15.0 wt. %,12.8 mg/mL
same,Dissolved Dapagliflozin,[2]; no cyclodextrin,1.6 mg/mL
same,effect of the interactions with cyclodextrins on solubility,[2]; cyclodextrin-concentration dependent,significant solubility enhancement
